Measurements: patent US7307145B2, “Sodium-independent transporter transporting small-sized neutral amino acid, gene thereof and method of analyzing transporter function by constructing fused proteins enabling the specification of the function” (Japan Science and Technology Agency, priority 2001, dated 2007)

B1: Asc-2-rBAT (Mus musculus) (protein)
chain: MQLLRALGVFHVSMILFSATLGTGIFVTPKAVLKYSSLNIPVSLSIWAGCGLLSIMSALCNAEIATTYPLSGASYYFLKRTLGSSVAFLSLWIKLFAHFLGIGAQCLLIATSVIQCFYSGCPAPELPTKCLALAILWSFGIVSARGIKTVAWFNTVSSFIKLSVLCLISLTVLLVNGKKENVSRFENALDAELPNASQIADAILQVSYSYLGSSVLIVIAGEIKRPTETIPKTLIYGISIVTVLYLLTNISYLAVLTSQEIIFSDSVGVTWMNRVFPSIQWISSFLISAFLLGSVSCGIVSASRVFYSASQEGEFPSIYSMLNDHHSPAVADIQIVILSSVAIISSSIIYLVKYVSLGSFCINLLQMIGLLKIRYQNPDIPRPYKVWLPFIFGSIALSLFLIFTPVIQSPSIEHVYQVVFLFCGFLCYWLQANLNGHATCFDTITCYCQLLFNISPSEDPEEQKNTSEFDEDKGKRDPIQMSLKGCRTNNGFVQNEDIPEQDPDPGSRDTPQPNAVSIPAPEEPHLKAVRPYAGMPKEVLFQFSGQARYRVPREILFWLTVVSVFLLIGATIAIIVISPKCLDWWQAGPIYQIYPRSFKDSDKDGNGDLKGIQEKLDYITALNIKTLWITSFYKSSLKDFRYAVEDFKEIDPIFGTMKDFENLVAAIHDKGLKLIIDFIPNHTSDKHPWFQSSRTRSGKYTDYYIWHNCTHVNGVTTPPNNWLSVYGNSSWHFDEVRKQCYFHQFLKEQPDLNFRNPAVQEEIKEIITFWLSKGVDGFSFDAVKFLLEAKDLRNEIQVNTSQIPDTVTHYSELYHDFTTTQVGMHDIVRDFRQTMNQYSREPGRYRFMGAEASAESIERTMMYYGLPFIQEADFPFNKYFTTIGTLSGHTVYEVITSWMENMPEGKWPNWMTGGPETPRLTSRVGSEYVNAMHMLLFTLPGTPITYYGEEIGMGDISVTNFNESYDSTTLVSKSPMQWDNSSNAGFTEANHTWLPTNSDYHTVNVDVQKTQPSSALRLYQDLSLLHATELVLSRGWFCLLRDDSHSVVYTRELDGIDNVFLVVLNFGESSTVLNLQGIISDLPPELRIRLSTNSASKGSAVDTRAISLEKGEGLVLEHSTKAPLHQQAAFRDRCFVSSRACYSSALDILYSSC
notes: expressed in transfected cells; host or cells: oocyte injected with cRNA

Tests used:
[1] = test system: Asc-2 fusion protein with the 4F2hc or rBAT; assay: Transport of amino acids by Asc-2 expressed on the cell membrane as fusion protein with 4F2hc or rBAT (summary statement); type: cell-based, mouse; settings: Asc-2 fused with 4F2hc or rBAT
Excerpt: In addition, L-methionine, L-leucine, L-isoleucine, L-valine, L-phenylalanine, L-tyrosine, L-histidine, D-serine and D-alanine are also transported at a low affinity.

[2] = molecular target: T1, Asc-2-rBAT (Mus musculus, UniProt Q8VIE6+Q91WV7); assay: Michaelis-Menten test of amino acid uptake by Xenopus oocytes injected with Asc-2-rBAT fusion protein cRNA; type: cell-based; settings: Asc-2-rBAT expressed in oocyte; serine = 1.00; mean ± standard error, n=3
T1 construct: expressed in transfected cells; host or cells: oocyte injected with cRNA
T1 sequence (Q8VIE6+Q91WV7 with tags, fused parts or gaps): B1 chain
Protocol: (§1) A Michaelis-Menten pharmacodynamic test of a sodium-independent transporter Asc-2 transporting small-sized neutral amino acid was conducted. By investigating the change in the ratio of serine uptake by the difference in the substrate serine concentration, the Michaelis-Menten pharmacodynamic test of the Asc-2 was conducted.
(§2) The serine uptake test was conducted using the oocyte into which a cRNA of the gene of the fusion protein of the Asc-2 with the 4F2hc or the rBAT (Asc-2-4F2hc or Asc-2-rBAT) was injected in accordance with the method in Section (2) in Example 2 described above.
(§3) The Michaelis-Menten pharmacodynamic tests were conducted also for the amino acids, other than serine, which also serve as the substrates for the Asc-2, and the Km and Vmax values were calculated and are shown in the following Table 1.

[3] = molecular target: T1, Asc-2-rBAT; assay: Inhibition test: 14C-serine uptake by oocytes expressing Asc-2-rBAT with added amino acids and analogues; type: cell-based; settings: 14C-serine 5 μM; non-labeled compound 500 μM; Na+-free uptake solution
Protocol: In a serine uptake test in an oocyte into which a cRNA of the gene of the fusion protein of the Asc-2 with the rBAT (Asc-2-rBAT) was injected, the effect of amino acids and their analogues on the system was investigated.
The serine uptake test was conducted using the oocyte into which a cRNA of the gene of the fusion protein of the Asc-2 with the rBAT (Asc-2-rBAT) was injected in accordance with the method in Section (2) in Example 2 described above. Nevertheless, the test was conducted using as a sodium-free uptake solution (Na^+-free uptake solution), and the ^14C-serine (5 μM) uptake was measured in the presence or absence of various compounds (non-labeled) at 500 μM.

[4] = molecular target: T1, Asc-2-rBAT; assay: Uptake test of radiolabeled amino acids and analogues as substrates by oocytes expressing Asc-2-rBAT; type: cell-based; settings: Asc-2-rBAT oocyte; 14C compound as substrate
Protocol: Using various amino acids and their analogues as substrates, the uptake by an oocyte into which a cRNA of the gene of the fusion protein of the Asc-2 with the rBAT (Asc-2-rBAT) had been injected was investigated.
The uptake test of various amino acids and their analogues was conducted using the oocyte into which a cRNA of the gene of the fusion protein of the Asc-2 with the rBAT (Asc-2-rBAT) had been injected in accordance with the method in Section (2) in Example 2 described above. Nevertheless, the test was conducted using as a substrate various compounds which were radiolabeled instead of ^14C-serine.

[5] = test system: T2, N[C@@H](CO)C(=O)O; assay: Michaelis-Menten test of serine uptake by Xenopus oocytes injected with Asc-2-4F2hc fusion protein cRNA; type: cell-based, mouse; settings: other: Asc-2-4F2hc expressed in oocyte
T2 construct: expressed in transfected cells; host or cells: oocyte injected with cRNA
Protocol: as §1, §2

[6] = substrate: C[C@@H](O)[C@H](N)C(=O)O; assay: cells, lysate or membranes; settings: other: Asc-2-rBAT expressed in oocyte; mean ± standard error, n=3
[7] = substrate: C[C@H](N)C(=O)O; assay: cells, lysate or membranes; settings: other: Asc-2-rBAT expressed in oocyte; mean ± standard error, n=3
[8] = substrate: NCC(=O)O; assay: cells, lysate or membranes; settings: other: Asc-2-rBAT expressed in oocyte; mean ± standard error, n=3
[9] = substrate: CC(C)C[C@H](N)C(=O)O; assay: Michaelis-Menten test of amino acid uptake by Xenopus oocytes injected with Asc-2-rBAT fusion protein cRNA; type: cell-based, mouse; settings: other: Asc-2-rBAT expressed in oocyte; mean ± standard error, n=3
Protocol: as §1, §2, §3

[10] = substrate: CC(C)[C@H](N)C(=O)O; assay: as above; type: cell-based, mouse; settings: other: Asc-2-rBAT expressed in oocyte; mean ± standard error, n=3
Protocol: as §1, §2, §3

[11] = substrate: N[C@@H](CO)C(=O)O; assay: as above; type: cell-based, mouse; settings: other: Asc-2-rBAT expressed in oocyte; mean ± standard error, n=3
Protocol: as §1, §2, §3

[12] = substrate: N[C@@H](CS)C(=O)O; assay: as above; type: cell-based, mouse; settings: other: Asc-2-rBAT expressed in oocyte; mean ± standard error, n=3
Protocol: as §1, §2, §3

Molecule	Affinity of transport by Asc-2 fusion protein [1]	Vmax (ratio to the Vmax of serine) [2]	Effect on Asc-2-rBAT-mediated 14C-serine uptake (cis-inhibition) [3]	other results
CSCC[C@H](N)C(=O)O [L-methionine]	low affinity	–	–	–
NCC(=O)O [Glycine]	high affinity	1.18 ± 0.05	inhibited potently	Uptake of radiolabeled compound into the oocyte [4]: substantial uptake
N[C@H](CO)C(=O)O [D-serine]	low affinity	–	–	–
CC[C@H](C)[C@H](N)C(=O)O [L-isoleucine]	low affinity	–	–	–
C[C@@H](N)C(=O)O [D-alanine]	low affinity	–	–	–
CC(C)[C@H](N)C(=O)O [L-Valine]	low affinity	0.79 ± 0.22	–	–
Asc-2-4F2hc (Mus musculus)	–	–	–	Km [5]: 2.10 µM
NCCCC(=O)O [γ-aminoisoyric acid]	–	–	no effect	–
N[C@@H](Cc1ccccc1)C(=O)O [L-phenylalanine]	low affinity	–	–	–
α-aminoisometylic acid	–	–	no effect	–
NC1(C(=O)O)CC2CCC1C2 (centres unmarked) [BCH, 2-amino-2-norbornane-carboxylic acid]	–	–	no effect	–
N[C@@H](Cc1c[nH]cn1)C(=O)O [L-histidine]	low affinity	–	–	–
C[C@@H](O)[C@H](N)C(=O)O [L-Threonine]	high affinity	0.53 ± 0.06	inhibited potently	Uptake of radiolabeled compound into the oocyte [4]: substantial uptake
CC(C)C[C@H](N)C(=O)O [L-Leucine]	low affinity	1.17 ± 0.11	–	–
N[C@@H](Cc1ccc(O)cc1)C(=O)O [L-tyrosine]	low affinity	–	–	–
N[C@@H](CS)C(=O)O [L-Cysteine]	high affinity	0.19 ± 0.03	inhibited potently	–
C[C@H](N)C(=O)O [L-Alanine]	high affinity	0.83 ± 0.08	inhibited potently	Uptake of radiolabeled compound into the oocyte [4]: substantial uptake
N[C@@H](CO)C(=O)O [L-Serine]	high affinity	(1.00)	inhibited potently	Uptake of radiolabeled compound into the oocyte [4]: substantial uptake
B1	–	–	–	Km [6]: 2.72 ± 0.44 µM; Km [7]: 2.35 ± 0.30 µM; Km [8]: 2.15 ± 0.35 µM; Km [9]: 39.6 ± 4.3 µM; Km [10]: 34.8 ± 10.6 µM; Km [11]: 2.88 ± 0.37 µM; Km [12]: 3.13 ± 0.57 µM
